Test results published in US10188653B2, “Diacylglycerol acyltransferase 2 inhibitors” (Pfizer Inc., priority 2014, dated 2019).

Biological target: hDGAT2 (Homo sapiens (Human), UniProt Q96PD7)
Test: In vitro DGAT2 assay, determination of IC50 values for DGAT2 inhibitors
Assay type: biochemical
Details: hDGAT2 membrane fraction; [1-14C]decanoyl-CoA and 1,2-didecanoyl-sn-glycerol substrates; geometric mean IC50; read-out: IC50 values of Examples for inhibition of DGAT2
Protocol: Recombinant baculovirus for the FLAG-tagged hDGAT2 was generated in SF9 insect cells using Bac-to-Bac baculovirus expression system (Invitrogen) according to the manufacturer's protocol. For the expression of hDGAT2, SF9 cells (20 L) grown in Sf900II media were infected with hDGAT2 baculovirus at a multiplicity of infection of 1 in a Wave Bioreactor System 20/50P wave bag (GE Healthcare). After 40 hours of infection, the cells were then harvested by centrifugation at 5,000×g. The cell pellets were washed by resuspending in phosphate buffered saline (PBS) and collected by centrifugation at 5,000×g. The cell paste was flash frozen in liquid N2 and stored at −80° C. until needed. All operations below were at 4° C. unless otherwise noted. […]
For determination of IC50 values, the reactions were carried out in 384-well white Polyplates (Perkin Elmer) in a total volume of 20 μL. […] Plates were centrifuged at 2,000×g for 1 min in an Allegra 6R Centrifuge (Beckman Coulter) and then were sealed again with fresh covers before reading in a 1450 Microbeta Wallac Trilux Scintillation Counter (Perkin Elmer). DGAT2 activity was measured by quantifying the generated product [^14C]tridecanoylglycerol in the upper organic phase. […]

Chain of hDGAT2 (Q96PD7 whole entry): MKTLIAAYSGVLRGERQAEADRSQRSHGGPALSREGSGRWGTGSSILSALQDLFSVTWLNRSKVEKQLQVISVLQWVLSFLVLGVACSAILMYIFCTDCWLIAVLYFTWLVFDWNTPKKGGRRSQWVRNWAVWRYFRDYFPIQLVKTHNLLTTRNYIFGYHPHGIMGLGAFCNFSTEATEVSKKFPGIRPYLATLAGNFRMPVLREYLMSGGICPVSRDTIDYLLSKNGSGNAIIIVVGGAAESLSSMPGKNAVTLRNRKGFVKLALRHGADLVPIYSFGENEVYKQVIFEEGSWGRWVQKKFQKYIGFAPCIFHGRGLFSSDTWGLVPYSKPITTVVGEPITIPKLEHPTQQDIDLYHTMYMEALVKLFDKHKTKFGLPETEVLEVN

Substance: (R)-2-(3-(2-ethoxy- phenoxy)piperidin-1-yl)- N-(1-hydroxy-2-methyl- propan-2-yl)pyrimidine- 5-carboxamide [Example 19.21]
- IC50: 7.9 nM
